Counter-ions that a name gives are not always drawn.
System: not given
Assay: not given
Conditions: not given
Work on `O=C(OCCCCCCCN(CCCOC(=O)c1c2ccccc2cc2ccccc12)CCCOc1ccc2ccc(=O)oc2c1)c1c2ccccc2cc2ccccc12` (as salt: hydrochloride) [Compound 27, 3-((7-((Anthracene-9-carbonyl)oxy)heptyl)(3-((2-oxo-2H-chromen-7-yl)oxy)propyl)amino)propyl Anthracene-9-carboxylate] yielded a melting point of 117 to 119 °C.
In the case of `COc1cc(C(=O)OCCCCCCCN(CCCOC(=O)c2c3ccccc3cc3ccccc23)CCCOc2ccc3ccc(=O)oc3c2)cc(OC)c1OC` (as salt: hydrochloride) [Compound 24, 3-((3-((2-Oxo-2H-chromen-7-yl)oxy)propyl)(7-((3,4,5-trimethoxybenzoyl)oxy)heptyl)amino)propyl Anthracene-9-carboxylate], the melting point is reported as 75 to 77 °C.
With `COc1cc(C(=O)OCCCCCN(CCCOC(=O)c2cc(OC)c(OC)c(OC)c2)CCCOc2ccc3ccc(=O)oc3c2)cc(OC)c1OC` (as salt: hydrochloride) [Compound 5, 5-((3-((2-Oxo-2H-chromen-7-yl)oxy)propyl)(3-((3,4,5-trimethoxybenzoyl)oxy)propyl)amino)pentyl 3,4,5-Trimethoxybenzoate] the melting point was 84 to 87 °C.
For `COc1cc(/C=C/C(=O)OCCCN(CCCCCCOC(=O)c2cc(OC)c(OC)c(OC)c2)CCCOc2ccc3ccc(=O)oc3c2)cc(OC)c1OC` (as salt: hydrochloride) [Compound 13, (E)-6-((3-((2-Oxo-2H-chromen-7-yl)oxy)propyl)(3-((3-(3,4,5-trimethoxyphenyl)acryloyl)oxy)propyl)amino)hexyl 3,4,5-Trimethoxybenzoate], the melting point was 78 to 81 °C.
`COc1cc(/C=C/C(=O)OCCCCCCCN(CCCOC(=O)/C=C/c2cc(OC)c(OC)c(OC)c2)CCCOc2ccc3ccc(=O)oc3c2)cc(OC)c1OC` (as salt: hydrochloride) [Compound 19, (E)-7-((3-((2-Oxo-2H-chromen-7-yl)oxy)propyl)(3-(((E)-3-(3,4,5-trimethoxyphenyl)acryloyl)oxy)propyl)amino)heptyl 3-(3,4,5-Trimethoxyphenyl)acrylate] gave a melting point of 90 to 92 °C.
In the case of `O=C(OCCCCCCN(CCCOC(=O)c1c2ccccc2cc2ccccc12)CCCOc1ccc2ccc(=O)oc2c1)c1c2ccccc2cc2ccccc12` (as salt: hydrochloride) [Compound 18, 3-((6-((Anthracene-9-carbonyl)oxy)hexyl)(3-((2-oxo-2H-chromen-7-yl)oxy)propyl)amino)propyl Anthracene-9-carboxylate], the melting point is reported as 136 to 139 °C.
Work on `COc1cc(C(=O)OCCCCCCN(CCCOC(=O)c2c3ccccc3cc3ccccc23)CCCOc2ccc3ccc(=O)oc3c2)cc(OC)c1OC` (as salt: hydrochloride) [Compound 15, 3-((3-((2-Oxo-2H-chromen-7-yl)oxy)propyl)(6-((3,4,5-trimethoxybenzoyl)oxy)hexyl)amino)propyl Anthracene-9-carboxylate] yielded a melting point of 148 to 151 °C.
Molecule `COc1cc(/C=C/C(=O)OCCCCCCCN(CCCOC(=O)c2cc(OC)c(OC)c(OC)c2)CCCOc2ccc3ccc(=O)oc3c2)cc(OC)c1OC` (as salt: hydrochloride) [Compound 20, (E)-3-((3-((2-Oxo-2H-chromen-7-yl)oxy)propyl)(7-((3-(3,4,5-trimethoxyphenyl)acryloyl)oxy)heptyl)amino)propyl 3,4,5-Trimethoxybenzoate] has a melting point of 84 to 87 °C.
For `COc1cc(/C=C/C(=O)OCCCN(CCCCCCOC(=O)c2c3ccccc3cc3ccccc23)CCCOc2ccc3ccc(=O)oc3c2)cc(OC)c1OC` (as salt: hydrochloride) [Compound 16, (E)-6-((3-((2-Oxo-2H-chromen-7-yl)oxy)propyl)(3-((3-(3,4,5-trimethoxyphenyl)acryloyl)oxy)propyl)amino)hexyl Anthracene-9-carboxylate], the melting point was 92 to 95 °C.
For `COc1cc(/C=C/C(=O)OCCCCCN(CCCOC(=O)c2c3ccccc3cc3ccccc23)CCCOc2ccc3ccc(=O)oc3c2)cc(OC)c1OC` (as salt: hydrochloride) [Compound 3, (E)-3-((3-((2-Oxo-2H-chromen-7-yl)oxy)propyl)(5-((3-(3,4,5-trimethoxyphenyl)acryloyl)oxy)pentyl)amino)propyl Anthracene-9-carboxylate], the melting point was 94 to 97 °C.
`COc1cc(/C=C/C(=O)OCCCCCCN(CCCOC(=O)c2cc(OC)c(OC)c(OC)c2)CCCOc2ccc3ccc(=O)oc3c2)cc(OC)c1OC` (as salt: hydrochloride) [Compound 11, (E)-3-((3-((2-Oxo-2H-chromen-7-yl)oxy)propyl)(6-((3-(3,4,5-trimethoxyphenyl)acryloyl)oxy)hexyl)amino)propyl 3,4,5-Trimethoxybenzoate] showed a melting point of 71 to 74 °C.
For `COc1cc(/C=C/C(=O)OCCCCCN(CCCOC(=O)/C=C/c2cc(OC)c(OC)c(OC)c2)CCCOc2ccc3ccc(=O)oc3c2)cc(OC)c1OC` (as salt: hydrochloride) [Compound 1, (E)-5-((3-((2-Oxo-2H-chromen-7-yl)oxy)propyl)(3-(((E)-3-(3,4,5-trimethoxyphenyl)acryloyl)oxy)propyl)amino)pentyl 3-(3,4,5-Trimethoxyphenyl)acrylate], the melting point was 81 to 84 °C.
Work on `COc1cc(/C=C/C(=O)OCCCN(CCCCCOC(=O)c2cc(OC)c(OC)c(OC)c2)CCCOc2ccc3ccc(=O)oc3c2)cc(OC)c1OC` (as salt: hydrochloride) [Compound 4, (E)-5-((3-((2-Oxo-2H-chromen-7-yl)oxy)propyl)(3-((3-(3,4,5-trimethoxyphenyl)acryloyl)oxy)propyl)amino)pentyl 3,4,5-Trimethoxybenzoate] yielded a melting point of 74 to 77 °C.
With `COc1cc(C(=O)OCCCCCCN(CCCOC(=O)c2cc(OC)c(OC)c(OC)c2)CCCOc2ccc3ccc(=O)oc3c2)cc(OC)c1OC` (as salt: hydrochloride) [Compound 14, 6-((3-((2-Oxo-2H-chromen-7-yl)oxy)propyl)(3-((3,4,5-trimethoxybenzoyl)oxy)propyl)amino)hexyl 3,4,5-Trimethoxybenzoate] the melting point was 83 to 85 °C.
`COc1cc(/C=C/C(=O)OCCCCCN(CCCOC(=O)c2cc(OC)c(OC)c(OC)c2)CCCOc2ccc3ccc(=O)oc3c2)cc(OC)c1OC` (as salt: hydrochloride) [Compound 2, (E)-3-((3-((2-Oxo-2H-chromen-7-yl)oxy)propyl)(5-((3-(3,4,5-trimethoxyphenyl)acryloyl)oxy)pentyl)amino)propyl 3,4,5-Trimethoxybenzoate] showed a melting point of 128 to 131 °C.
Molecule `COc1cc(/C=C/C(=O)OCCCCCCCN(CCCOC(=O)c2c3ccccc3cc3ccccc23)CCCOc2ccc3ccc(=O)oc3c2)cc(OC)c1OC` (as salt: hydrochloride) [Compound 21, (E)-3-((3-((2-Oxo-2H-chromen-7-yl)oxy)propyl)(7-((3-(3,4,5-trimethoxyphenyl)acryloyl)oxy)heptyl)amino)propyl Anthracene-9-carboxylate] has a melting point of 100 to 102 °C.
For `COc1cc(C(=O)OCCCN(CCCCCCOC(=O)c2c3ccccc3cc3ccccc23)CCCOc2ccc3ccc(=O)oc3c2)cc(OC)c1OC` (as salt: hydrochloride) [Compound 17, 6-((3-((2-Oxo-2H-chromen-7-yl)oxy)propyl)(3-((3,4,5-trimethoxybenzoyl)oxy)propyl)amino)hexyl Anthracene-9-carboxylate], the melting point was 87 to 90 °C.
In the case of `COc1cc(/C=C/C(=O)OCCCN(CCCCCCCOC(=O)c2cc(OC)c(OC)c(OC)c2)CCCOc2ccc3ccc(=O)oc3c2)cc(OC)c1OC` (as salt: hydrochloride) [Compound 22, (E)-7-((3-((2-Oxo-2H-chromen-7-yl)oxy)propyl)(3-((3-(3,4,5-trimethoxyphenyl)acryloyl)oxy)propyl)amino)heptyl 3,4,5-Trimethoxybenzoate], the melting point is reported as 73 to 76 °C.
For `COc1cc(C(=O)OCCCCCN(CCCOC(=O)c2c3ccccc3cc3ccccc23)CCCOc2ccc3ccc(=O)oc3c2)cc(OC)c1OC` (as salt: hydrochloride) [Compound 6, 3-((3-((2-Oxo-2H-chromen-7-yl)oxy)propyl)(5-((3,4,5-trimethoxybenzoyl)oxy)pentyl)amino)propyl Anthracene-9-carboxylate], the melting point was 114 to 117 °C.
Work on `COc1cc(C(=O)OCCCN(CCCCCOC(=O)c2c3ccccc3cc3ccccc23)CCCOc2ccc3ccc(=O)oc3c2)cc(OC)c1OC` (as salt: hydrochloride) [Compound 8, 5-((3-((2-Oxo-2H-chromen-7-yl)oxy)propyl)(3-((3,4,5-trimethoxybenzoyl)oxy)propyl)amino)pentyl Anthracene-9-carboxylate] yielded a melting point of 120 to 123 °C.
In the case of `COc1cc(C(=O)OCCCN(CCCCCCCOC(=O)c2c3ccccc3cc3ccccc23)CCCOc2ccc3ccc(=O)oc3c2)cc(OC)c1OC` (as salt: hydrochloride) [Compound 26, 7-((3-((2-Oxo-2H-chromen-7-yl)oxy)propyl)(3-((3,4,5-trimethoxybenzoyl)oxy)propyl)amino)heptyl Anthracene-9-carboxylate], the melting point is reported as 97 to 99 °C.

Target: hCA I (Homo sapiens, UniProt P00915)
Sequence (P00915 whole entry): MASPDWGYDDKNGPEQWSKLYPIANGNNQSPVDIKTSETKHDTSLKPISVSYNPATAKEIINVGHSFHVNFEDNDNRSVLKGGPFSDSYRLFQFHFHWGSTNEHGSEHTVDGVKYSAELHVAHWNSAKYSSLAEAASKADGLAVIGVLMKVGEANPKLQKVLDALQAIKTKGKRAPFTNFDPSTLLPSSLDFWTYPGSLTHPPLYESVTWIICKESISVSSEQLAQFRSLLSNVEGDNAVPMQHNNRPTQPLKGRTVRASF
Assay: stopped-flow CO2 hydrase assay, hCA I
Conditions: read-out: Ki hCA I; stopped-flow technique, mean from three different assays
Source text: (§1) An SX.18MV-R Applied Photophysics (Oxford, U.K.) stopped-flow instrument has been used to assay the catalytic/inhibition of various CA isozymes.[38] […] The inhibition constants were obtained by nonlinear least-squares methods using the Cheng–Prusoff equation, as reported earlier,[32] and represent the mean from at least three different determinations.
Work on `O=C(OCCCCCN(CCCOC(=O)c1c2ccccc2cc2ccccc12)CCCOc1ccc2ccc(=O)oc2c1)c1c2ccccc2cc2ccccc12` [Compound 9, 3-((5-((Anthracene-9-carbonyl)oxy)pentyl)(3-((2-oxo-2H-chromen-7-yl)oxy)propyl)amino)propyl Anthracene-9-carboxylate] yielded a Ki of over 10 µM.
In the case of `O=C(OCCCCCCCN(CCCOC(=O)c1c2ccccc2cc2ccccc12)CCCOc1ccc2ccc(=O)oc2c1)c1c2ccccc2cc2ccccc12` [Compound 27, 3-((7-((Anthracene-9-carbonyl)oxy)heptyl)(3-((2-oxo-2H-chromen-7-yl)oxy)propyl)amino)propyl Anthracene-9-carboxylate], the Ki is reported as over 10 µM.

Target: hCA II (Homo sapiens, UniProt P00918)
Assay: stopped-flow CO2 hydrase assay, hCA II
Conditions: read-out: Ki hCA II; stopped-flow technique, mean from three different assays
Source text: as §1
Work on `O=C(OCCCCCN(CCCOC(=O)c1c2ccccc2cc2ccccc12)CCCOc1ccc2ccc(=O)oc2c1)c1c2ccccc2cc2ccccc12` [Compound 9, 3-((5-((Anthracene-9-carbonyl)oxy)pentyl)(3-((2-oxo-2H-chromen-7-yl)oxy)propyl)amino)propyl Anthracene-9-carboxylate] yielded a Ki of over 10 µM.
`O=C(OCCCCCCCN(CCCOC(=O)c1c2ccccc2cc2ccccc12)CCCOc1ccc2ccc(=O)oc2c1)c1c2ccccc2cc2ccccc12` [Compound 27, 3-((7-((Anthracene-9-carbonyl)oxy)heptyl)(3-((2-oxo-2H-chromen-7-yl)oxy)propyl)amino)propyl Anthracene-9-carboxylate] gave a Ki of over 10 µM.

Target: hCA IX (Homo sapiens, UniProt Q16790)
Assay: stopped-flow CO2 hydrase assay, hCA IX
Conditions: read-out: Ki hCA IX; stopped-flow technique, mean from three different assays
Source text: as §1
Work on `O=C(OCCCCCN(CCCOC(=O)c1c2ccccc2cc2ccccc12)CCCOc1ccc2ccc(=O)oc2c1)c1c2ccccc2cc2ccccc12` [Compound 9, 3-((5-((Anthracene-9-carbonyl)oxy)pentyl)(3-((2-oxo-2H-chromen-7-yl)oxy)propyl)amino)propyl Anthracene-9-carboxylate] yielded a Ki of 0.137 µM.
Molecule `O=C(OCCCCCCCN(CCCOC(=O)c1c2ccccc2cc2ccccc12)CCCOc1ccc2ccc(=O)oc2c1)c1c2ccccc2cc2ccccc12` [Compound 27, 3-((7-((Anthracene-9-carbonyl)oxy)heptyl)(3-((2-oxo-2H-chromen-7-yl)oxy)propyl)amino)propyl Anthracene-9-carboxylate] has a Ki of 0.102 µM.

— publication PMC9661477, “New Dual P-Glycoprotein (P-gp) and Human Carbonic Anhydrase XII (hCA XII) Inhibitors as Multidrug Resistance (MDR) Reversers in Cancer Cells” (Journal of Medicinal Chemistry, 2022)
